In patent publication US20260234217A1, “USE OF BMP RECEPTOR ALK1 INHIBITORS IN OSTEOARTHRITIS THERAPIES” (The Regents of the University of California, priority 2023, published 2026):
Entries after “also recorded” stand apart in the source; their conditions may differ.

How the values were obtained:
[1] = biological target: T1, ALK3 (Homo sapiens, UniProt P36894); conditions: kinase assay; cited from earlier work
[2] = test system: subchondral bone plate; assay: Subchondral bone plate analysis in DMM mice; format: in vivo, mouse; conditions: after DMM surgery
Source text: Dissected knee joints underwent Micro-CT analysis using the Skyscan 1172 in vivo μCT scanner (Bruker micro-CT, Kontich, Belgium) at 55 kV and 181 μA, with a resolution of 10 μm. The raw data was then translated into two-dimensional cross-sectional gray scale image slices using NRecon (Bruker microCT, Kontich, Belgium). Structural parameters were then acquired from the two-dimensional images using a CT Analyzer (CT-AN, v1.10.9.0, Bruker microCT, Kontich, Belgium), including bone volume fraction (BV, mm3). The total knee osteophyte volume from the end of the distal femur to the end of the proximal tibia was compared between knees that underwent sham surgery, DMM surgery treated with PBS, DMM surgery treated with BMP-KI, or DMM surgery treated with ALK1-Fc. Average osteophyte volume was analyzed with Prism 9 Software (GraphPad) using two-way ANOVA and Tukey's multiple comparisons test post-hoc. MicroCT and data analysis was performed by an experienced investigator blinded to genotype/treatment. For each experimental group, five joint sections per animal were analyzed from the medial compartment. […] All quantifications were conducted in Fiji is Just ImageJ (FIJI, version 2.9.0). Quantified subchondral bone thickness was analyzed with Prism 9 Software (GraphPad) using two-way ANOVA and Tukey's multiple comparisons test post-hoc.

[3] = test system: BMP-9-induced BMP reporter activity by ALK5-deficient ATDC5 cells; assay: BMP-9-induced BMP signal luciferase reporter in ALK5-deficient chondrocytic cells; format: cell-based, mouse; conditions: in the presence of 2 ng/mL of rhBMP-9; read-out: median effective concentration (EC50) to block BMP activity in vitro
Source text: Ligands that bind to ALK1 at physiological concentrations are BMP9 and BMP10 (Chen et al, PNAS 2013). […] ActRIIB has 300-fold higher affinity for BMP9 than does ActRIIA (Townson et. al., J Biol Chem. 2012 Aug. 10; 287(33):27313-2). The formation of ALK1-ActRIIB complexes is associated with the elevation of levels of pSmad1/5-mediated BMP signaling in cartilage (Wang et al., PNAS 2009)[4]. […] Furthermore, since loss of ALK5 causes OA and ALK5 antagonizes ALK1, these above results provide evidence that blocking ALK1 signaling may prevent OA development.
As described herein, the ALK1 receptor normally binds to ALK5 and/or ActRIIA in healthy chondrocytes, but in OA conditions ALK5 expression levels decline in chondrocytes and ALK1 tends to complex with ActRIIB; this ALK1/ActRIIB complex has high affinity for BMP9 and BMP10. […] BMP signaling output is monitored by a BMP signal luciferase reporter plasmid which contains a Smad1/5/8 response element in the promoter region. The biological efficacy of ALK1 antagonists is measured by their ability to inhibit BMP-9-induced BMP reporter activity by ALK5-deficient chondrocytic cells, such as ALK5-deficient ATDC5 cells. […]

[4] = test system: adult growth plate; assay: SOFG histology of proximal tibial growth plate in DMM mice; format: in vivo, mouse; conditions: week 8 after DMM surgery
Source text: FIG. 10. […] Sagittal sections of the proximal tibial growth plate were stained with Safranin-O/Fast Green (SOFG) to visualize proteoglycan (red) in the growth plate, subchondral bone (top blue), and trabecular bone (bottom blue) at week 8 after DMM or Sham surgery. […] Alk1^Col2 mice underwent DMM surgery (DMM+Alk1^Col2). WT control mice (lacking Col2a1-Cre) underwent sham surgery and received PBS treatment (Sham+PBS). (n=5/group).
Knee joint samples were harvested and fixed in 4% Paraformaldehyde for 3 days, and subsequently decalcified in formic acid (Statlab; 1414-32) for 3 days and embedded in paraffin. Sagittal sections 7 micrometers in thickness were taken and stained using Safranin-O (Sigma-Aldrich; S8884-25G), fast green (Sigma-Aldrich; F7258-25G), and hematoxylin (Fisherbrand; 245-656) using a standard histology protocol. Images were taken with the Olympus BX60 brightfield microscope using a 10× objective lens. Representative sections throughout the medial and lateral portion of side were chosen for histological analysis, resulting in 5 sections being imaged for both portions of the joint.

[5] = biological target: T1, ALK3; assay: kinase assay (biochemical IC50, literature); conditions: concentration of 200 nM

T1 sequence (P36894 24-532, species assumed): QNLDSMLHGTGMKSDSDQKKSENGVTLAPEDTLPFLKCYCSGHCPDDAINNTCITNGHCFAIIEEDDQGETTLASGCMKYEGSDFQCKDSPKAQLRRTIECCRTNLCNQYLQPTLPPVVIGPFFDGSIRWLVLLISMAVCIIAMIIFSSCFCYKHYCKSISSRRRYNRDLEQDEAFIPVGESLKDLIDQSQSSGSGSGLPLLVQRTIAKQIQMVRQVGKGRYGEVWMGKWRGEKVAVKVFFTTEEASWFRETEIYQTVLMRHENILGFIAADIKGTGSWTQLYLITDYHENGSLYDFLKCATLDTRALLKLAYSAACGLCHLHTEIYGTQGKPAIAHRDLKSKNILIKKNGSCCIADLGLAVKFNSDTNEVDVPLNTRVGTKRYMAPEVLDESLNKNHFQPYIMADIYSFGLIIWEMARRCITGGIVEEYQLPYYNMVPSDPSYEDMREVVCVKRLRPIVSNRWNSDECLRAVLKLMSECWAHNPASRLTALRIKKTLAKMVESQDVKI

## COc1cc(-c2cc(-c3ccc(N4CCNCC4)cc3)cnc2C)cc(OC)c1OC [LDN-214117]
[1]
  IC50: 1170 nM
[2]; week 8, microCT
  total volume of the subchondral plates: no significant impact
[2]; week 8, listed as BMP-KI
  thickness (thickening) of the subchondral bone plate: no significant impact; also recorded: no observed effect
[3]
  EC50: 40 nM
[4]
  impact on adult growth plate maintenance: no obvious impact
[5]
  effect on ALK3 at the injected concentration: < 25 % IC50
